# From US11021481B2, “Substituted isoindolin-1-ones and 2,3-dihydro-1h-pyrrolo[3,4-c]pyridin-1-ones as HPK1 antagonists” (Nimbus Saturn, Inc., priority 2019, dated 2021)
# Counter-ions that a name gives are not always drawn.
# Biological target: HPK1 (Homo sapiens (Human), UniProt Q92918)
# Test: HPK1 biochemical enzyme assay (microfluidic mobility shift assay)
# Details: 1.5 nM HPK1, ATP 1 mM final, 30 min preincubation, 60 min at RT, Caliper EZ Reader; read-out: HPK1 1000UMATP caliper IC50
# Procedure: HPK1 biochemical enzyme assay: HPK1 enzyme inhibition was measured using a microfluidic mobility shift assay. […] Test compounds were titrated in ten point curves (top final assay concentration 3 μM), and preincubated with enzyme/substrate mix for 30 min prior to initiation of the reaction by addition of ATP (1 mM final concentration) and substrate (1 μM final concentration; Carna Biosciences) diluted in assay buffer supplemented by MgCl2 (final assay concentration of 5 mM). Following 60 min incubation at RT, the reaction was terminated by addition of 60 µl/well termination buffer (Carna Biosciences) and signal determination using aCaliper EZ Reader (Perkin Elmer, UK).
# The compound numbers correspond to the compound numbers in Table 1.
# Sequence of HPK1 (Q92918 whole entry): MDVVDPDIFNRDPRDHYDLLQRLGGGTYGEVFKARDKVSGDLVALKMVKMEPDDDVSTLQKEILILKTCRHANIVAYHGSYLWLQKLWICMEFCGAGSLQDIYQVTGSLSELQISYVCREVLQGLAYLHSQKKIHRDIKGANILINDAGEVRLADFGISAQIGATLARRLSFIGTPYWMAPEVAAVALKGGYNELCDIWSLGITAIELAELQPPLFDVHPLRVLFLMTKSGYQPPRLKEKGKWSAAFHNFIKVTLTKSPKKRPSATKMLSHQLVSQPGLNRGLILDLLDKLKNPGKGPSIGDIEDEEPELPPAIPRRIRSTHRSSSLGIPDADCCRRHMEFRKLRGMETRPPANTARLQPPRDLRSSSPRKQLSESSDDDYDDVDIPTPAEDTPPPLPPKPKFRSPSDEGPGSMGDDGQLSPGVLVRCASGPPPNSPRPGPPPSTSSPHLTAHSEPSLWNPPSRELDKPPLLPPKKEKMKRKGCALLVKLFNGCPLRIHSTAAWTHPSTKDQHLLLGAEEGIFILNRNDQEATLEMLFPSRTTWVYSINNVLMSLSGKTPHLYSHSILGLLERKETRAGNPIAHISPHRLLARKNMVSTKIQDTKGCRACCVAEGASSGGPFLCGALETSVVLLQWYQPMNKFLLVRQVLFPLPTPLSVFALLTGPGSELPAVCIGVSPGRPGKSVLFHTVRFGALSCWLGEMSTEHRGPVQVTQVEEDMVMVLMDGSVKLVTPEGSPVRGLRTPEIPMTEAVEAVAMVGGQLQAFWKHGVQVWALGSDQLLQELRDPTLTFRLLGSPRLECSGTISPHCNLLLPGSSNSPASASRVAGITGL
row,SMILES,IC50 [nM]
1,"Cn1ccc2c(-c3ccc(Nc4cccc(N5CCC(O)CC5)n4)c4c3CNC4=O)ccnc21 [I-147, 7-[[6-(4-hydroxy-1-piperidyl)-2-pyridyl]amino]-4-(1-methylpyrrolo [2,3-b]pyridin-4-yl)isoindolin-1-one]",100 to 1000
2,"CCNC(=O)c1ccn2c(-c3ccc(Nc4ccc(N5CCC(O)CC5)cn4)c4c3CNC4=O)cnc2c1 [I-195, N-ethyl-3-[7-[[5-(4-hydroxy-1-piperidyl)-2-pyridyl]amino]-1-oxo-isoindolin-4-yl]imidazo[1,2-a]pyridine-7-carboxamide]",100 to 1000
3,"O=C1NCc2c(-c3cnc4cc(F)ccn34)ccc(Nc3cccc(O[C@@H]4CCC[C@@H]4O)n3)c21 (stereo in doubt) [I-353, 4-(7-fluoroimidazo [1,2-a]pyridin-3-yl)-7-((6-(((1S,2R)-2-hydroxycyclo-pentyl)oxy)py-ridin-2-yl)amino) isoin-dolin-1-one]",100 to 1000
4,"Cn1ccc2c(-c3ccc(Nc4ccc(N5CC6CCC(C5)N6)cn4)c4c3CNC4=O)ccnc21 [I-70, 7-[[5-(3,8-diazabicyc1o [3,2.1]octan-3-yl)-2-pyridyl]amino]-4-(1-methylpyrrolo [2,3-b]pyridin-4-yl)isoindolin-1-one]",< 100
5,"CN1CCN(c2ccc(Nc3ccc(-c4c[nH]c5cccnc45)c4c3C(=O)NC4)nc2)CC1 [I-26, 7-((5-(4-methylpiperazin-1-yl)pyridin-2-yl)amino)-4-(1H-pyrrolo[3,2-b]pyridin-3-yl)isoindolin-1-one]",100 to 1000
6,CC(C)([C@H]1CN(c2ccc(Nc3ccc(-c4cnc5cc(F)ccn45)c4c3C(=O)NC4)nc2)CCO1)N1CC(O)C1 [I-698],< 100
7,"CN(C)Cc1nc(Nc2cnc(-c3ccnc4c3ccn4C)c3c2C(=O)NC3)ccc1C1CCOCC1 [I-845, 7-[[6-[(dimethylamino)-methyl]-5-tetrahydropyran-4-yl-2-pyridyl]amino]-4-[l-methylpyrrolo [2,3-b]pyridin-4-yl)-2,3-dihydropyrrolo [3,4-c]pyridin-1-one Formic acid salt]",< 100
8,COCC1(c2ccc(Nc3ccc(-c4cnc5cc(F)ccn45)c4c3C(=O)NC4)nc2CN(C)C)CCOCC1 [I-831],< 100
9,"O=C1NCc2c(-c3cnn4ccccc34)ncc(Nc3ccc(N4CCC(O)CC4)cn3)c21 [I-464, 7-[[5-(4-hydroxy-1-piperidyl)-2-pyridyl]amino] 4-pyrazolo[1,5-a]pyridin-3-yl-2,3-dihydropyrrolo [3,4-c]pyridin-l-one]",< 100
10,"Cn1ccc2c(-c3ccc(Nc4ccc(N5CCC(O)CC5)cn4)c4c3CNC4=O)ncnc21 [I-144, 7-[[5-(4-hydroxy-1-piperidyl)-2-pyridyl]amino]-4-(7-methylpyrrolo [2,3-d]pyrimidin-4-yl)isoindolin-1-one]",< 100
11,"O=C1NCc2c(-c3cnc4cc(F)ccn34)ccc(Nc3ccc(N4CCOC[C@@H](O)C4)cn3)c21 [I-339, (S)-4-(7-fluoroimidazo [1,2-a]pyridin-3-yl)-7-((5-(6-hydroxy-1,4-oxazepan-4-yl)pyridin-2-yl)amino)isoin-dolin-1-one]",< 100
12,"O=C1NCc2c(-c3cnc4cc(F)ccn34)ccc(Nc3ccc([C@@H]4CCOC4)c(CN4CCC[C@H]4CO)n3)c21 [I-828, 4-(7-fluoroimidazo [1,2-a]pyridin-3-yl)-7-((6-(((S)-2-(hydroxymeth-yl)pyrrolidin-1-yl)methyl)-5-((S)-THF-3-yl)pyridin-2-yl)amino)isoin-dolin-1-one]",< 100
13,"C[C@H](O)[C@H]1CCCN(c2ccc(Nc3ccc(-c4cnc5cc(F)ccn45)c4c3C(=O)NC4)nc2)C1 (stereo in doubt) [I-356, 4-(7-fluoroimidazo [1,2-a]pyridin-3-yl)-7-((5-((R)-3-((R)-1-hydroxyethyl)piperidin-1-yl)pyridin-2-yl)amino)isoin-dolin-1-one]",< 100
14,"CN1CCN(c2ccc(Nc3ccc(-c4ccnc5c4ccn5CC(N)=O)c4c3C(=O)NC4)nc2)CC1 [I-269, 2-(4-(7-((5-(4-methylpiperazin-1-yl)pyridin-2-yl)amino)-1-oxoisoindolin-4-yl)-lH-pyrrolo[2.3-b]pyridin-1-yl)acctamide]",< 100
15,"O=C1NCc2c(-c3cnc4ncccn34)ccc(Nc3ccc(N4CCNCC4)cn3)c21 [I-87, 4-imidazo[1,2-a]pyrimidin-3-yl-7-[(5-piperazin-1-yl-2-pyridyl)amino] isoindolin-1-one]",< 100
16,"Cn1cnc2c(-c3ccc(Nc4ccc(N5CCC(O)CC5)cn4)c4c3CNC4=O)ccnc21 [I-152, 7-[[5-(4-hydroxy-1-piperidyl)-2-pyridyl]amino]-4-(3-methylimidazo [4,5-b]pyridin-7-yl)isoindolin-1-one]",< 100
17,"Cc1cccn2c(-c3ccc(Nc4ccc(N5CCC(O)(CN6CCN(C)CC6)CC5)cn4)c4c3CNC4=O)cnc12 [I-402, 7-((5-(4-hydroy-4-((4-methylpiperazin-1-yl)methyl)piper-idin-1-yl)pyridin-2-yl)amino)-4-(8-methylimidazo [1,2-a]pyridin-3-yl)isoindolin-1-one]",< 100

# The next lines start with the values.
row,IC50 [nM],SMILES
1,< 100,"O=C1NCc2c(-c3cnc4cc(F)ccn34)ccc(Nc3ccc(N4C[C@H]5CC[C@@H](C4)C5O)cn3)c21 (stereo partly drawn) [I-404, 4-(7-fluoroimidazo [1,2-a]pyridin-3-yl)-7-((5-((1R,5S)-8-hydroxy-3-azabicyclo [3,2.1]octan-3-yl)pyridin-2-yl)amino)isoin-dolin-1-one]"
2,< 100,O=C1NCc2c(-c3cnc4cc(C(F)(F)F)ccn34)ccc(Nc3ccc(N4CCC(O)CC4)cn3)c21 [I-140]
3,< 100,"Cn1ccc2c(-c3ccc(Nc4ccc(N5CCOCC5)cn4)c4c3CNC4=O)ccnc21 [I-110, 4-(1-methylpyrrolo [2,3-b]pyridin-4-yl)-7-[(5-morpholino-2-pyridyl)amino] isoindolin-1-one]"
4,< 100,"Cn1ccc2c(-c3ncc(Nc4ccc(N5CCC[C@@H](C(C)(C)O)C5)cn4)c4c3CNC4=O)cccc21 [I-223, 7-[[5-[(3R)-3-(1-hydroxy-1-methyl-ethyl)-1-piperipyl]-2-pyridyl]-amino]-4-(1-methylindol-4-yl)-2,3-dihydropyrrolo [3,4-c]pyridin-1-one]"
5,< 100,"CN(Cc1nc(Nc2ccc(-c3cnc4cc(F)ccn34)c3c2C(=O)NC3)ccc1[C@@H]1CCOC1)C1COC1 [I-744, (S)-4-(7-fluoroimidazo [1,2-a]pyridin-3-yl)-7-((6-((methyl(oxe-tan-3-yl)amino)meth-yl)-5-(tetrahydrofuran-3-yl)pyridin-2-yl)amino)isoin-dolin-1-one]"
6,< 100,"C[C@H](c1nc(Nc2ccc(-c3cnc4cc(F)ccn34)c3c2C(=O)NC3)ccc1[C@H]1CCOC1)N(C)C [I-817, 7-((6-((R)-1-(dimethylami-no)ethyl)-5-((R)-THF-3-yl)pyridin-2-yl)amino)-4-(7-fluoroimidazo [1,2-a]pyridin-3-yl)isoindolin-1-one]"
7,< 100,"CC(C)(O)[C@H]1CN(c2ccc(Nc3ccc(-c4cnc5cc(F)ccn45)c4c3C(=O)NC4)nc2)CCO1 [I-345, (R)-4-(7-fluoroimidazo[1,2-a]pyridin-3-yl)-7-((5-(2-(2-hydroxypropan-2-yl)morpholino)pyridin-2-yl)amino)isoindolin-1-one]"
8,< 100,"C[C@H](O)C1CCN(c2ccc(Nc3ccc(-c4cnc5cc(F)ccn45)c4c3C(=O)NC4)nc2)CC1 [I-214, 4-(7-fluoroimidazo [1,2-a]pyridin-3-yl)-7-[[5-[4-[(1S)-1-hydroxyethyl]-l-piperidyl]-2-pyridyl]amino] isoindolin-1-one]"
9,< 100,"O=C1NCc2c(-c3cnc4c(F)cccn34)ncc(Nc3ccc(C4(O)CCOCC4)cn3)c21 [I-683, 4-(8-fluoroimidazo [1,2-a]pyridin-3-yl)-7-((5-(4-hydroxytetra-hydro-2H-pyran-4-yl)pyridin-2-yl)amino)-2,3-dihydro-1H-pyrrolo[3,4-c)pyridin-1-one]"
10,< 100,"CN1C[C@H](c2ccc(Nc3ccc(-c4cnc5cnccn45)c4c3C(=O)NC4)nc2)CCC1=O [I-326, (S)-4-(imidazo[1,2-a]pyrazin-3-yl)-7-((5-(1-methyl-6-oxopiperidin-3-yl)pyridin-2-yl)amino)isoin-dolin-1-one]"
11,< 100,"Cn1ccc2c(-c3ncc(Nc4ccc(N5CCC[C@@](O)(CN6CCOCC6)C5)cn4)c4c3CNC4=O)ccnc21 (single isomer, unassigned) [I-673]"
12,< 100,"CNCc1nc(Nc2ccc(-c3cnc4cc(F)ccn34)c3c2C(=O)NC3)ccc1C1CCOC1 (stereo in doubt) [I-723, (R)-4-(7-fluoroimidazo [1,2-a]pyridin-3-yl)-7-((6-((methyl-amino)methyl)-5-(tetrahydrofuran-3-yl)pyridin-2-yl)amino)isoin-dolin-1-one]"
13,< 100,"COCCN(C)Cc1nc(Nc2ccc(-c3cnc4cc(F)ccn34)c3c2C(=O)NC3)ccc1C1CCOC1 (stereo in doubt) [I-728, (S)-4-(7-fluoroimidazo [1,2-a]pyridin-3-yl)-7-(6-(((2-methoxyethyl) (methyl)-amino)methyl)-5-(tetrahydrofuran-3-yl)pyridin-2-yl)amino)isoin-dolin-1-one]"
14,< 100,"CN1CCN(c2ccc(Nc3ccc(-c4ccnc5c4ccn5C4CC4)c4c3C(=O)NC4)nc2)CC1 [I-265, 4-(1-cyclopropyl-1H-pyrrolo[2,3-b]pyridin-4-yl)-7-((5-(4-methylpiperazin-1-yl)pyridin-2-yl)amino)isoin-dolin-1-one]"
15,< 100,"CN(C)Cc1nc(Nc2ccc(-c3cnc4cc(F)ccn34)c3c2C(=O)NC3)ccc1N1CCOC2(CC2)C1 [I-530, 7-[[6-[(dimethylamino)-methyl]-5-(4-oxa-7-azaspiro[2.5]octan-7-yl)-2-pyridyl]amino]-4-(7-fluoroimidazo [1,2-a]pyridin-3-yl)isoindolin-1-one Formic acid salt]"
